Source: PMC11997127 (Scientific Reports, 2025)

How the values were obtained:
[1] = target: T1, Staphylococcus aureus lipase (SAL) (Staphylococcus aureus, UniProt Q2G155); assay: X-ray co-crystal structures; type: biochemical
[2] = target: T1, Staphylococcus aureus lipase (SAL); assay: pNPB hydrolysis assay; type: biochemical

T1 sequence (Q2G155 297-690): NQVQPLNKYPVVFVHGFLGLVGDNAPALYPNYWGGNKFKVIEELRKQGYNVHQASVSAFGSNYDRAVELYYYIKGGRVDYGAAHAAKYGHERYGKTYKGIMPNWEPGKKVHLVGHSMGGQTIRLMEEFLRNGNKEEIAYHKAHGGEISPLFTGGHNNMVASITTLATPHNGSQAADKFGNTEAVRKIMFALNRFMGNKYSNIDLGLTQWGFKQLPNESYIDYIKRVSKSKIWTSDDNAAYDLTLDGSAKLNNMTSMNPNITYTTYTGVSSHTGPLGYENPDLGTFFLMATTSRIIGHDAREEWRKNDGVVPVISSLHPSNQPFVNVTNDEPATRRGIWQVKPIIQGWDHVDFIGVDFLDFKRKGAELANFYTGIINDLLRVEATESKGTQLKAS

Row | Structure (SMILES) | IC50 [1] | IC50 [2]
1 | OC1(c2ccc(Cl)c(C(F)(F)F)c2)CCN(CCCC(c2ccc(F)cc2)c2ccc(F)cc2)CC1 [penfluridol, 1-[4,4-bis(4-fluorophenyl)butyl]-4-[4-chloro-3-(trifluoromethyl)phenyl]piperidin-4-ol] | 7.3 µM | 
2 | O=c1[nH]c2ccccc2n1C1CCN(CCCC(c2ccc(F)cc2)c2ccc(F)cc2)CC1 [pimozide, 3-[1-[4,4-bis(4-fluorophenyl)butyl]piperidin-4-yl]-1H-benzimidazol-2-one] |  | ~48.5 µM
